Patent US9446039B2, “Aminoheteroaryl compounds as MTH1 inhibitors” (CEMM—FORSCHUNGSZENTRUM FÜR MOLEKULARE MEDIZIN GMBH, priority 2012, dated 2016)

Legend:
Type in all cases: binding
[1] = target: SW480 colon carcinoma cells lysate proteins (Homo sapiens, UniProt Q9HB71); settings: PreyGene CACYBP
[2] = target: T1, SW480 colon carcinoma cells lysate proteins (Homo sapiens, UniProt P04264); settings: PreyGene KRT1
T1 sequence (P04264 1-644): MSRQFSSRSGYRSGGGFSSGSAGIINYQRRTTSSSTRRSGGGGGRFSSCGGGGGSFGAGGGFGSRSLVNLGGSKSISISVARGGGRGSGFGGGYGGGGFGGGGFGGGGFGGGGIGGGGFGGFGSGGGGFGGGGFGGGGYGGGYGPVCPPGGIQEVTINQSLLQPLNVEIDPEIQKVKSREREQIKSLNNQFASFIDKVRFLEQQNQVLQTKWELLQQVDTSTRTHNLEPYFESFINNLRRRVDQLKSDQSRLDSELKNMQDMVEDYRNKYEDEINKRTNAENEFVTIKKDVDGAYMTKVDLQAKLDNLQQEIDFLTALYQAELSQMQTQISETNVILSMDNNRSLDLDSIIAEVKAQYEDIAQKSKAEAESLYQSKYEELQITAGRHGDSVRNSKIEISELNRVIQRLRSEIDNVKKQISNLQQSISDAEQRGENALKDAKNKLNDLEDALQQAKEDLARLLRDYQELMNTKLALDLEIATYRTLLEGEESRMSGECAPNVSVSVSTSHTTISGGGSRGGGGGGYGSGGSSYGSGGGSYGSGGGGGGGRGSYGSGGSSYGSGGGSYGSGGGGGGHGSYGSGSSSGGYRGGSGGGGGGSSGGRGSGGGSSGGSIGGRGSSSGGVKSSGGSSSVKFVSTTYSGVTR

[3] = target: T2, SW480 colon carcinoma cells lysate proteins (Homo sapiens, UniProt P40926); settings: PreyGene MDH2
T2 sequence (P40926 25-338): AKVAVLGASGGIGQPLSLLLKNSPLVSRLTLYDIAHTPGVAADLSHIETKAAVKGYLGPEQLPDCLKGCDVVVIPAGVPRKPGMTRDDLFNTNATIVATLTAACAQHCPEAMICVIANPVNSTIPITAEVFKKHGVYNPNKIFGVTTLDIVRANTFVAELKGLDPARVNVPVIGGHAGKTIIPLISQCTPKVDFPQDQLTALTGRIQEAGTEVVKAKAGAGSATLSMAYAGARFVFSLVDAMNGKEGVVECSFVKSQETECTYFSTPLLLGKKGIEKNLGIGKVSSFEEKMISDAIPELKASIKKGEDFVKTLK

[4] = target: SW480 colon carcinoma cells lysate proteins (Homo sapiens, UniProt P15531); settings: PreyGene NME1
Chain of SW480 colon carcinoma cells lysate proteins (Homo sapiens, UniProt P15531) (P15531 whole entry): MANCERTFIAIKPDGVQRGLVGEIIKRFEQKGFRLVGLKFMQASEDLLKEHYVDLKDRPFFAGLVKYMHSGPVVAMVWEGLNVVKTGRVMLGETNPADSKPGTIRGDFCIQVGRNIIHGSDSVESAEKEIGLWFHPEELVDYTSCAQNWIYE

[5] = target: T3, SW480 colon carcinoma cells lysate proteins (Homo sapiens, UniProt P53618); settings: PreyGene COPB1
T3 sequence (P53618 1-953): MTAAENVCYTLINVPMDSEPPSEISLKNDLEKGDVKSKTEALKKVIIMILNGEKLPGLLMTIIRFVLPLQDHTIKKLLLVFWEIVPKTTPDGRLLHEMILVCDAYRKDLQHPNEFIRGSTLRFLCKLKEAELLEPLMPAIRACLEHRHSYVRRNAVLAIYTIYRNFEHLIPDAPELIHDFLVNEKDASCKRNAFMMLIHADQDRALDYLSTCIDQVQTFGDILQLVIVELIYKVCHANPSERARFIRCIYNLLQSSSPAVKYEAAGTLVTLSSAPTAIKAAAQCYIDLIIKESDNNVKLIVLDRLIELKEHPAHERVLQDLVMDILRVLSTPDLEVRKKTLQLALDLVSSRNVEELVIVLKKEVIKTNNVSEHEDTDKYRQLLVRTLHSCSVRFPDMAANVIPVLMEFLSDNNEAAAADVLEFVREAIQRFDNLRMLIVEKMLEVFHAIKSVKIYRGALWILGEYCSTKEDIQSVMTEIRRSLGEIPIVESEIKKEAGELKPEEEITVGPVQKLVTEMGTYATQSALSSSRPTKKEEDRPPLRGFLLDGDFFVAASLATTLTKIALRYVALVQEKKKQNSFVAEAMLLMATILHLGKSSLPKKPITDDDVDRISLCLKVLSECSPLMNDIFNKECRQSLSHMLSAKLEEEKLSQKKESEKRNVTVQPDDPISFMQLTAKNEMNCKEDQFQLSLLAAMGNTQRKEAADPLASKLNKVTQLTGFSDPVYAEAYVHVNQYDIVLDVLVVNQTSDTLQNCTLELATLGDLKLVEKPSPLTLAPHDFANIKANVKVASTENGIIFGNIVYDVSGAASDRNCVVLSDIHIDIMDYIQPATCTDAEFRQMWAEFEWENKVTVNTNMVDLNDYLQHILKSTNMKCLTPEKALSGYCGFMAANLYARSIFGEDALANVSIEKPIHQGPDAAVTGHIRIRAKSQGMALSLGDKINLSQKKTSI

Chain of SW480 colon carcinoma cells lysate proteins (Homo sapiens, UniProt Q9HB71) (Q9HB71 whole entry): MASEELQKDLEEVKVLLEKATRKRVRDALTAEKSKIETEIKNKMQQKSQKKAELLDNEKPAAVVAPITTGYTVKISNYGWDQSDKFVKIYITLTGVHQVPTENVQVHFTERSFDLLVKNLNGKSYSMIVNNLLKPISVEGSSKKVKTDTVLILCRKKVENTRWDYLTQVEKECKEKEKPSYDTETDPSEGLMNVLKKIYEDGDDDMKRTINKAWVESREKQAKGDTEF

C[C@H](Oc1cc(-c2cnn(C3CCNCC3)c2)cnc1N)c1c(Cl)ccc(F)c1Cl [(5)-crizotinib]
AvgP [1]: 0.392 | SC.Exp. 1-1 [1]: 2 | SC.Exp. 1-2 [1]: 2 | SC.Exp. 2-1 [1]: 0 | SC.Exp. 2-2 [1]: 0 | Sum (SC.Exp.) [1]: 4 | AvgP [2]: 0.3569 | SC.Exp. 1-1 [2]: 26 | SC.Exp. 1-2 [2]: 24 | SC.Exp. 2-1 [2]: 5 | SC.Exp. 2-2 [2]: 3 | Sum (SC.Exp.) [2]: 58 | AvgP [3]: 0.4441 | SC.Exp. 1-1 [3]: 5 | SC.Exp. 1-2 [3]: 5 | SC.Exp. 2-1 [3]: 0 | SC.Exp. 2-2 [3]: 0 | Sum (SC.Exp.) [3]: 10 | AvgP [4]: 0.4442 | SC.Exp. 1-1 [4]: 6 | SC.Exp. 1-2 [4]: 4 | SC.Exp. 2-1 [4]: 0 | SC.Exp. 2-2 [4]: 0 | Sum (SC.Exp.) [4]: 10 | AvgP [5]: 0.2093 | SC.Exp. 1-1 [5]: 1 | SC.Exp. 1-2 [5]: 3 | SC.Exp. 2-1 [5]: 0 | SC.Exp. 2-2 [5]: 0 | Sum (SC.Exp.) [5]: 4
